Experimental data reported in ChEMBL document CHEMBL4665869, “New thiazolopyrimidine as anticancer agents: Synthesis, biological evaluation, DNA binding, molecular modeling and ADMET study” (Bioorg Med Chem Lett, 2020).
≈ marks a conversion by molar mass, not a printed value.

Target: DNA
Test: Displacement of methyl green from DNA (unknown origin) assessed as DNA intercalation after 24 hrs by colorimetric assay
Assay type: nucleic-acid assay

| Structure (SMILES) | IC50 [µg/mL] |
| --- | --- |
| CCOC(=O)C1=CSC2=NC(/C=C/c3cccs3)=CC(c3cccs3)N12 (configuration not stated) | 66.01 (≈ 165 µM) |
| COc1ccc(/C=C/C2=CC(c3ccc(OC)cc3)N3C=C(C)SC3=N2)cc1 (configuration not stated) | 41.37 (≈ 106 µM) |
| CC1=CN2C(=NC(/C=C/c3cccs3)=CC2c2cccs2)S1 (configuration not stated) | 76.15 (≈ 222 µM) |
| COc1ccc(/C=C/C2=CC(c3ccc(OC)c(OC)c3)N3C=C(C)SC3=N2)cc1OC (configuration not stated) | 58.32 (≈ 129 µM) |

Next, values leading:

| IC50 [µg/mL] | Structure (SMILES) |
| --- | --- |
| 62.74 (≈ 182 µM) | Cc1ccc(/C=C/C2=CC(c3ccc(C)cc3)N3C=CSC3=N2)cc1 (configuration not stated) |
| 31.49 (≈ 75.6 µM) | CCOC(=O)C1=CSC2=NC(/C=C/c3ccc(C)cc3)=CC(c3ccc(C)cc3)N12 (configuration not stated) |
| 50.91 (≈ 127 µM) | CC1=CSC2=NC(/C=C/c3ccc(Cl)cc3)=CC(c3ccc(Cl)cc3)N12 (configuration not stated) |
